Source: patent EP4125996B1, “EZRIN PEPTIDE 1 FOR USE IN A METHOD OF TREATING COVID-19” (priority 2020, dated 2024)
Ends that are not written are not given here.

Assays:
[1] = test system: SARS-CoV-2; assay: Case reports: subcutaneous Ezrin peptide 1 in patients with COVID-19; type: in vivo, humans
[2] = test system: J-96 Human Cell Line; conditions: cell cultures; R. Ataullakhanov et al. 2005; cited from earlier work
[3] = high dosages of 50 mg per kg body weight per day or higher; no test or source given; cited from earlier work

For “TEKKRRETVEREKE [Ezrin peptide 1, NH2_Thr-Glu-Lys-Lys-Arg-Arg-Glu-Thr-Val-Glu-Arg-Glu-Lys-Glu_COOH]”, the “Course of Disease (symptoms)” value ([1]; Example 1, patient, 0.2 mg s.c. daily, 15.03.2020, 2nd administration) was “increasing symptoms”, the “Course of Disease (symptoms)” value ([1]; Example 1, 0.2 mg s.c. daily, 16.03.2020, 3rd administration) was “increasing symptoms with strong eye pain” and the “Course of Disease (symptoms)” value ([1]; Example 1, 0.2 mg s.c. daily, 17.03.2020, 4th administration) was “increasing symptoms with more cough”. The “Course of Disease (symptoms)” value ([1]; Example 1, 0.2 mg s.c. daily, 18.03.2020, 5th administration) was “significant signs of recovery, no eye pain, decreasing fever”, the “Course of Disease (symptoms)” value ([1]; Example 1, 0.2 mg s.c. daily, 19.03.2020, 6th administration) was “significant signs of recovery, normal body temperature, no fatigue” and the “Course of Disease (symptoms)” value ([1]; Example 1, 0.2 mg s.c. daily, 20.03.2020, 7th administration) was “return of taste, good general condition”. The “Course of Disease (symptoms)” value ([1]; Example 1, 0.2 mg s.c. daily, 21.03.2020, 8th administration) was “no signs of illness anymore”, the “course of the disease (duration)” value ([1]; Example 1, compared with the course expected for patients of this risk group) was “significantly shorter” and the “severity of symptoms after administration” value ([1]; Example 1, compared with what is expected in a patient of this risk group) was “significantly lower”. The body temperature ([1]; Example 2, patient, 2 mg s.c. per dose, 25.04.2020 in the morning, second dose) was 37.5 °C, the body temperature ([1]; Example 2, 2 mg s.c., 25.04.2020 in the evening) was 39.0 °C and the “Course of Disease (symptoms)” value ([1]; Example 2, 2 mg s.c., 25.04.2020, second dose) was “still general weakness, shortness of breath, cough, loss of appetite”. For the same sequence, the body temperature ([1]; Example 2, 2 mg s.c., 26.04.2020 in the evening) was 37.5 °C, the “Course of Disease (symptoms)” value ([1]; Example 2, 2 mg s.c., 26.04.2020, third administration) was “Still loss of appetite, slight cough” and the body temperature ([1]; Example 2, 2 mg s.c., 27.04.2020) was 37.4 °C. The “Course of Disease (symptoms)” value ([1]; Example 2, 2 mg s.c., 27.04.2020, fourth dose) was “Slight cough, slight headache”, the body temperature ([1]; Example 2, 2 mg s.c., 28.04.2020) was 37.3 °C and the “Course of Disease (symptoms)” value ([1]; Example 2, 2 mg s.c., 28.04.2020, fifth administration) was “Only slight pain of touching the scalp, still slight weakness”. For the same sequence, the “Course of Disease (symptoms)” value ([1]; Example 2, 2 mg s.c., 30.04.2020, sixth administration) was “Significant improvement of clinical symptoms, normal temperature”, the “Course of Disease (symptoms)” value ([1]; Example 2, 01. to 04.05.2020, after six doses, antibiotic coverage due to increased CRP level) was “taste completely returned, no more cough, no more fever, clinical well-being” and the “Course of Disease (symptoms)” value ([1]; Example 3, patient, 2 mg/d then 0.2 mg/d for four days s.c., 25.12.2020 (therapy begun 23.12.2020)) was “significant improvement of cough and general condition”. For the same sequence, the “Course of Disease (symptoms)” value ([1]; Example 3, after completion of HEP-1 therapy) was “No further symptoms”, the “Course of Disease (symptoms)” value ([1]; Example 4, patient, 2 mg/d for two days then 0.2 mg/d for four days s.c., 25.12.2020 (therapy begun 23.12.2020)) was “significant improvement of cough and general condition” and the “Course of Disease (symptoms)” value ([1]; Example 4, after completion of HEP-1 therapy) was “No further symptoms”. For the same sequence, the “Course of Disease (symptoms)” value ([1]; Example 5, patient, 2 mg/d for two days then 0,2 mg/d for four days s.c., 26.12.2020 (therapy begun 23.12.2020)) was “significant improvement of symptoms”, the “Course of Disease (symptoms)” value ([1]; Example 5, after completion of the initial HEP-1 therapy) was “No further symptoms after completion of HEP-1 therapy until 13.01.2021, then severe shortness of breath” and the “Course of Disease (shortness of breath)” value ([1]; Example 5, after subsequent 0,2 mg/d s.c. for fourteen days from 15.01.2021) was “No further shortness of breath”. The “Course of Disease (symptoms)” value ([1]; Example 6, patient, 0.2 mg/d s.c. for ten days from 10.12.2020, 14.12.2020) was “significant improvement of symptoms”, the “Course of Disease (symptoms)” value ([1]; Example 6, 0.2 mg/d s.c. for ten days, 20.12.2020) was “complete recovery of symptoms” and the anti-viral effect [2] was “has shown an anti-viral effect”. The toxicity [3] was “not toxic”.
